Experimental data reported in patent US8481576B2 (Abbott GmbH & Co. KG, priority 2004, dated 2013).
Where a name gives a salt, the structure may show the parent alone.

Biological target: T1, h5-HT5A receptor (Homo sapiens, UniProt P47898)
T1 construct: expressed in transfected cells; host or cells: HEK293
Assay: [3H]5-CT binding assay h5-HT5A
Settings: membranes from HEK293 cells expressing h5-HT5A, 2.5 nM [3H]5-CT; read-out: Binding affinity 5-HT5A (Ki)
Summary of the method: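 Membranes from HEK293 cells stably expressing h5-HT5A incubated with 2.5 nM [3H]5-CT and compound in 100 mM Tris-HCl pH 7.7, 1 mM EDTA, 75 min at 30° C. Nonspecific binding with 10 μM methiothepine; filtration and scintillation counting give Ki or IC50.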

T1 sequence (P47898 whole entry): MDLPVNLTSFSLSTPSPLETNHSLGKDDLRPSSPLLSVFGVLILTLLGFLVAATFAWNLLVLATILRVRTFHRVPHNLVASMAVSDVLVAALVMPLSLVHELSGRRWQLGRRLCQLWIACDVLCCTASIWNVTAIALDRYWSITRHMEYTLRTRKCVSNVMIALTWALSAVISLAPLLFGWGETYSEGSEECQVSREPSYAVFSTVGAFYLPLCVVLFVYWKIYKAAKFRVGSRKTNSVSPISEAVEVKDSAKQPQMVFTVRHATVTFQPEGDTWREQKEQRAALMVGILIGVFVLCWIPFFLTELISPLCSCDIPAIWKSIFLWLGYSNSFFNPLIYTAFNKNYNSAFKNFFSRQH

| Ki [nM] | SMILES |
| --- | --- |
| 50 to 500 | COc1cccc(Cl)c1CNC(=N)Nc1nc(-c2ccc(F)cc2)cs1 [Example 136, N-(2-chloro-6-methoxybenzyl)-N′-[4-(4-fluorophenyl)-1,3-thiazole-2-yl]guanidine] |
| < 50 | COc1cccc(C)c1CNC(=N)Nc1nc(-c2ccc(F)cc2)cs1 [Example 138, N-[4-(4-fluorophenyl)-1,3-thiazole-2-yl]-N′-(2-methoxy-6-methylbenzyl)guanidine] |
| 50 to 500 | COc1cccc(F)c1CNC(=N)Nc1nc(-c2ccc(F)cc2)cs1 [Example 141, N-(2-fluoro-6-methoxybenzyl)-N′-[4-(4-fluorophenyl)-1,3-thiazole-2-yl]guanidine] |
| < 50 | COc1cccc(OC)c1CNC(=N)Nc1nc(-c2ccc(F)cc2O)cs1 [Example 142, N-(2,6-dimethoxybenzyl)-N′-[4-(4-fluoro-2-hydroxyphenyl)-1,3-thiazole-2-yl]guanidine] |
| < 50 | COc1cccc(OC)c1CNC(=N)Nc1nc(Cc2ccc(F)cc2)cs1 [Example 143, N-(2,6-dimethoxybenzyl)-N′-[4-(4-fluorobenzyl)-1,3-thiazole-2-yl]guanidine] |
| < 50 | COc1cccc(OC)c1CNC(=N)Nc1nc(-c2ccc(F)cn2)cs1 [Example 144, N-(2,6-dimethoxybenzyl)-N′-[4-(5-fluoropyridine-2-yl)-1,3-thiazole-2-yl]guanidine] |
| < 50 | COc1cccc(OC)c1CNC(=N)Nc1nc(-c2ncc(F)cc2F)cs1 [Example 145, N-[4-(3,5-difluoropyridine-2-yl)-1,3-thiazole-2-yl]-N′-(2,6-dimethoxybenzyl)guanidine] |

More lines, now with the values behind:

| SMILES | Ki [nM] |
| --- | --- |
| COc1cccc(Cl)c1CNC(=N)Nc1nc(-c2ccc(Cl)cn2)cs1 [Example 134, N-(2-chloro-6-methoxybenzyl)-N′-[4-(5-chloropyridine-2-yl)-1,3-thiazole-2-yl]guanidine] | 50 to 500 |
| COc1cccc(Cl)c1CNC(=N)Nc1nc(-c2ncccn2)cs1 [Example 135, N-(2-chloro-6-methoxybenzyl)-N′-(4-pyrimidine-2-yl-1,3-thiazole-2-yl)guanidine] | < 50 |
| COc1cccc(C)c1CNC(=N)Nc1nc(-c2ccc(Cl)cn2)cs1 [Example 137, N-[4-(5-chloropyridine-2-yl)-1,3-thiazole-2-yl]-N′-(2-methoxy-6-methylbenzyl)guanidine] | > 500 |
| COc1cccc(C)c1CNC(=N)Nc1nc(-c2ncccn2)cs1 [Example 139, N-(2-methoxy-6-methylbenzyl)-N′-(4-pyrimidine-2-yl-1,3-thiazole-2-yl)guanidine] | < 50 |
| COc1cccc(C)c1CNC(=N)Nc1nc(-c2ccccn2)cs1 [Example 140, N-(2-methoxy-6-methylbenzyl)-N′-(4-pyridine-2-yl-1,3-thiazole-2-yl)guanidine] | < 50 |
| COc1ccc2ccccc2c1CNC(=N)Nc1nc(-c2ccccc2)cs1 [Example 146, N-[(2-methoxy-1-naphthyl)methyl]-N′-(4-phenyl-1,3-thiazole-2-yl)guanidine] | 50 to 500 |
| COc1cccc(OC)c1CNC(=N)Nc1nc(C2CCCN2)cs1 (centres unmarked) [Example 147, N-(2,6-dimethoxybenzyl)-N′-(4-pyrrolidine-2-yl-1,3-thiazole-2-yl)guanidine hydrochloride] | < 50 |
| COc1cccc(OC)c1CNC(=N)Nc1nc(C2CCCN2C(C)=O)cs1 (centres unmarked) [Example 148, N-[4-(1-acetylpyrrolidine-2-yl)-1,3-thiazole-2-yl]-N′-(2,6-dimethoxybenzyl)guanidine] | < 50 |
| COc1cccc(OC)c1CNC(=N)Nc1nc(C2CCCN2C)cs1 (centres unmarked) [Example 149, N-(2,6-dimethoxybenzyl)-N′-[4-(1-methylpyrrolidine-2-yl)-1,3-thiazole-2-yl]guanidine] | < 50 |
| COc1cccc(OC)c1CNC(=N)Nc1nc(C2CCCN2S(=O)(=O)c2ccccc2)cs1 (centres unmarked) [Example 150, N-(2,6-dimethoxybenzyl)-N′-{4-[1-(phenylsulfonyl)pyrrolidine-2-yl]-1,3-thiazole-2-yl}guanidine] | < 50 |
